Assay: gradient 5% acetonitrile 3 min, to 50% in 2 min, to 85% in 15 min, held 3 min, 100 µL/min
Conditions: column: Zorbax Extend-C18 2.1 x 50 mm; eluents: water / acetonitrile, 0.1% formic acid
Method in brief: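 Standards, all pure, were combined into mixtures of ~100 molecules and run at 100 μL/min on a Zorbax Extend-C18 column (2.1 × 50 mm, 1.8 μm) with water and acetonitrile, each containing 0.1% formic acid. A coupled quadrupole time-of-flight mass spectrometer operated in positive and negative ionization mode. Retention time values come from computationally picked adduct peaks, each inspected manually.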

RP-LC retention time [s] | Compound
659 | Cc1cccc(-c2[nH]c(C(C)(C)C)nc2-c2ccc3nccnc3c2)n1
849 | N#Cc1ccc(-c2nc(-c3ccc4c(c3)nnn4CCC(=O)N3CCCC3)no2)c(F)c1
798 | CC(=O)Nc1ccc(-c2noc(C3CCCN(C(=O)CCc4c[nH]c5ccccc45)C3)n2)cc1 (stereo unspecified)
823 | Cc1ccc(N2CCC(NC(=O)Nc3ccccc3C)C2=O)cc1 (stereo unspecified)
1210 | Cc1sc(C)c(S(=O)(=O)N2CCCCC2)c1-c1cc(C(F)(F)F)on1
1200 | Cc1cc(C)cc(-c2nnc(Cc3nc(-c4ccccc4C)no3)o2)c1
770 | O=C1NC2(CCN(C(=O)NCc3cccc(F)c3)CC2)Nc2cc(Cl)ccc21
1280 | Cc1ccc(-c2csc(Cc3nc(-c4ccccc4Cl)no3)n2)cc1
910 | Cc1ccc(S(=O)(=O)N2CCC(C(=O)NCc3csc(-c4cccs4)n3)CC2)cc1
772 | CCCN1C(=O)c2cccnc2Sc2cc(C(=O)N3CCCCC3)ccc21
1130 | Cc1ccc(Cn2nc(-c3nc(C(C)(C)C)no3)ccc2=O)cc1
1000 | Cc1nn(-c2nc3ccccc3[nH]2)c2c1C(=O)CC(c1ccc(F)cc1)C2 (stereo unspecified)
899 | Cc1ccc(NC(=O)NC2CCN(c3ccc(F)c(C)c3)C2=O)cc1C (stereo unspecified)
907 | CCOC(=O)c1cc2n(n1)CC(C)(C(=O)NC1CCCC1)N(Cc1cccc(F)c1)C2=O (stereo unspecified)
1220 | Cc1c(Cl)cccc1S(=O)(=O)N1CCCC1c1nc(-c2cccc(F)c2)no1 (stereo unspecified)
980 | O=C1CCCc2cc(S(=O)(=O)N3CCN(c4cccc(C(F)(F)F)c4)CC3)ccc2N1
762 | O=C(COc1ccc2ccccc2c1)NCC1CCN(c2ncccn2)CC1
674 | CCNC(=O)C1CCN(c2cnn(Cc3ccccc3)c(=O)c2)CC1

RP-LC retention time [s] | Compound
1060 | Cc1cccc(-c2noc(Cn3c(=O)n(Cc4ccccc4)c(=O)c4sccc43)n2)c1
644 | Cc1ccc(CNC(=O)C2CCN(c3cn[nH]c(=O)c3)CC2)cc1
836 | O=C(c1cn2nc(Cl)ccc2n1)N1CCN(c2ccccc2F)CC1
872 | CC(C)(C)c1ccc(C(=O)Nc2nnc(C3CC(=O)N(c4ccc(F)cc4)C3)o2)cc1 (stereo unspecified)
968 | COc1cccc(-c2noc(Cc3nnc(-c4cc(F)cc(F)c4)o3)n2)c1OC
816 | COc1ccc(S(=O)(=O)N2CCC(c3noc(-c4ccncc4)n3)C2)cc1 (stereo unspecified)
1080 | CCc1nc(-c2ccc(-c3noc(CNC(=O)Cc4ccc(Cl)cc4)n3)cc2)cs1
792 | O=C1CCN(C(=O)COc2ccc(Cl)cc2Cl)c2ccccc2N1
797 | Cc1cc(N2CCN(S(=O)(=O)c3ccc(F)cc3)CC2)nc(NC2CCCCC2)n1
789 | Cc1ccc(N2CC(c3nc(Cn4cnc5ccccc5c4=O)no3)CC2=O)cc1C (stereo unspecified)
830 | O=C(Nc1nnc(C2CC(=O)N(c3ccc(F)cc3)C2)o1)c1ccc(C(F)(F)F)cc1 (stereo unspecified)
664 | CCn1cnc2cc(-c3noc(C4CC(=O)N(c5ccccc5)C4)n3)ccc21 (stereo unspecified)
748 | CCn1c(=O)c(N2CCN(S(=O)(=O)c3ccc4c(c3)CCC4)CC2)nc2ccncc21
896 | CCn1ccc2oc(C)c(C(=O)N3CCN(c4cccc(Cl)c4)CC3)c2c1=O
597 | CCN(C1CCOCC1)C1CN(S(=O)(=O)c2cccc(F)c2)C1
762 | O=C(NC1CCN(c2cc(-c3ccc(Cl)cc3)[nH]n2)C1)c1ccc2cc[nH]c2c1 (stereo unspecified)
760 | O=C(Cc1c(F)cccc1Cl)NC1CCN(c2cc(-c3ccc(F)cc3)[nH]n2)C1 (stereo unspecified)

The next lines start with the compound.

Compound | RP-LC retention time [s]
COc1ccc(Cl)cc1NC(=O)C(C)Oc1cc(C(F)(F)F)c2c(C)nn(C)c2n1 (stereo unspecified) | 1200
Cc1cc(C)n2nc(SCC(=O)NCCC(C)C)nc2n1 | 690
Cc1ccc(NC(=O)N2CCC3(C2)c2nc[nH]c2CCN3C)cc1 (stereo unspecified) | 554
CCCCNC(=O)CCC(=O)N1CCCn2nc(-c3cn(C)c4ccccc34)cc21 | 778
CN(C)c1ccc(C(=O)N2CCC(COc3ccc(C(=O)N4CCCCC4)cc3)CC2)cc1 | 929
COCCN1C(=O)CCc2cc(NC(=O)c3ccc(Cl)s3)ccc21 | 958
CC(C)NC(=O)C1CCN(C(=O)c2ncn3c2COC(c2ccc(Cl)cc2)C3)CC1 (stereo unspecified) | 679
CCCNC(=O)c1cc(=O)[nH]c2c(C)cccc12 | 647
CCOC(=O)c1c(C)c(CCC(=O)N2CCC(C)CC2)n(C)c1C | 950
CNc1nccc(N2CCC(CC(=O)N3CCCCCC3)CC2)n1 | 539
CCn1ncc(NC(=O)Cc2ccc(Cl)cc2)c(N2CCOCC2)c1=O | 836
CCn1c(=O)c2ccnn2c2ccc(C(=O)NC3CCCC3)cc21 | 587
CCN1C(=O)c2cccnc2Sc2cc(CNC(=O)c3cccc(OC)c3)ccc21 | 762
COc1c(C(=O)NCc2ccccc2C)sc2cccc(F)c12 | 1130
CCOC(=O)C1CCN(Cc2nnn(-c3ccccc3)c2C)CC1 | 614
CN(C)c1cc(N2CCCC(NC(=O)c3ccccn3)C2)ncn1 (stereo unspecified) | 559
COc1cccc(CCC(=O)N2CCN(c3nc(CN4CCC(C)CC4)cs3)CC2)c1 | 681
Cc1ccccc1NC(=O)NCC(c1cccnc1)c1cn(C)c2ccccc12 (stereo unspecified) | 680
CCOC(=O)c1cc(S(=O)(=O)N2CCCC2C(=O)NCCC2=CCCCC2)cn1C (stereo unspecified) | 985

Compound | RP-LC retention time [s]
CC(=O)Nc1ccc(C2(C(=O)NCc3ccc4c(c3)OCO4)CCC2)cc1 | 730
CCn1c(=O)c2c(cc(C)n2C)n(CC(=O)Nc2c(C)cccc2C)c1=O | 756
CCNC(=O)c1cc(N(C)C)nc2c(Cl)cccc12 | 730
Cn1nnc2cc(CNC(=O)c3cccnc3)ccc21 | 566
CC(C)(C)C(=O)N1CCC(C(=O)Nc2nc3ccc(S(C)(=O)=O)cc3s2)CC1 | 718
O=C(C1CCCN(c2ncnc3c2nc2n3CCCCC2)C1)N1CCN(c2ccccn2)CC1 (stereo unspecified) | 592
Cn1nc(C(=O)N2CCCCC2)c2c1CCN(C(=O)CCC(=O)NCCC1=CCCCC1)C2 | 744
CCCN(C(C)=O)c1nc(-c2ccc(C3CCCCC3)cc2)cs1 | 748
O=C(CC1CC1)N1CC(F)(F)C[C@H]1c1nnc(-c2ccccc2)o1 | 804
CN(C)[C@@H]1CN(C(=O)C2CCCC2)CC[C@@H]1CO | 569
CCN(CC)C(=O)c1cc(C)nc2c1c(=O)n(Cc1ccccc1)c(=O)n2C | 884
CCN1CCN(CC2CCN(S(=O)(=O)c3cc(F)cc(F)c3)CC2)CC1 | 598
COC(=O)c1c[n+]([O-])ccc1OC | 603
Cc1sc2ccn(CC(C)C)c(=O)c2c1C(=O)NCc1ccc(F)cc1 | 917
CSCc1csc(NC(=O)C2CCCC2)n1 | 782
CC(C)CNC(=O)N1CCN(c2nc3ccccc3n(Cc3ccccc3)c2=O)CC1 | 986
CCOc1nc2ccccc2nc1N1CCCC(C(=O)NC2CCCCCC2)C1 (stereo unspecified) | 1250
COc1ccc(-c2csc(NC(=O)Cn3nc(C)cc3C)n2)cc1 | 842
O=C([C@@H]1C[C@H](F)CN1S(=O)(=O)Cc1ccccc1)N1CCOCC1 | 692

Compound | RP-LC retention time [s]
CCNc1cc(N2CCC(CCC(=O)NCc3ccc(C)cc3)CC2)ncn1 | 676
CN(C)C/C=C(/c1ccc(Br)cc1)c1cccnc1 | 664
Cc1cc2cc(CNC(=O)C(=O)c3c[nH]c4ccccc34)ccc2[nH]1 | 878
Cc1cc(N2CCCC2)n2nc(CN3CCN(CC(C)C)CC3)nc2n1 | 549
CCN(CC)C(=O)c1ccc2c(c1)nnn2CCNC(=O)Nc1ccc2c(c1)CCC2 | 764
O=C(Nc1c(-c2ccccc2)nc2ccc(Cl)cn12)c1cccs1 | 735
COc1ccc(Cn2c(=O)n(C)c3ncncc32)cc1F | 683
COC(CNC(=O)c1cc(C)nn1-c1ccccc1)OC | 659
CCN1CCN(C(=O)C2CCN(S(=O)(=O)c3ccc4c(c3)sc(=O)n4CC)CC2)CC1 | 602
COCc1noc(CC2CCOC3(CCN(Cc4ccc5c(c4)CCO5)CC3)C2)n1 (stereo unspecified) | 646
O=C(CN1C(=O)C2CCCCN2c2ccc(S(=O)(=O)N3CCCC3)cc21)NC1CC1 (stereo unspecified) | 770
CCCCOC(=O)C1=CN(Cc2ccccc2)S(=O)(=O)N=C1C | 1080
COc1cc2c(cc1OC)C(COc1ccc(F)cc1)N(C(=O)C(C)(C)C)CC2 (stereo unspecified) | 998
Cc1onc(-c2ccccn2)c1C(=O)NCCCN1CCN(C2CCCCC2)CC1 | 582
COc1cc(OC)c(NC(=O)Cc2nnc(-c3ccc4ncccc4c3)o2)cc1Cl | 936
CN(CC1CCOCC1)C(=O)Nc1ccc(F)c(Cl)c1 | 797
CN(CCNC(=O)c1ccc(-c2ccnc(N3CCCC3)n2)cc1)C1CCCCC1 | 611
Cc1ccc(-c2nnc(Cc3nc(C(C)C)no3)o2)cc1C | 967
